Columns and labels:
Experiment in all cases: In vitro antibacterial evaluation: minimum inhibitory concentration (MIC), broth dilution method
Format in all cases: cell-based
Enterococcus sp. = system: Enterococcus sp.
In short: (§1)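 MIC read as lowest drug level preventing visible growth. Organisms at 5×10^5 CFU/mL were exposed to a 64-0.06 μg/mL dilution series in Muller-Hinton II […] following NCCLS broth dilution standard M7-A2.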

Escherichia coli = conditions: for MIC Escherichia coli (ATCC 25922): strain ATCC 25922; for MIC Escherichia coli (GC 4559): strain GC 4559; for MIC Escherichi coli (GC 4560): strain GC 4560
In short: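 Using Muller-Hinton II […] and an inoculum of 5×10^5 CFU/mL, antibiotic dilutions from 64 down to 0.06 μg/mL were tested following NCCLS M7-A2. The MIC is the lowest concentration inhibiting growth, including in methicillin-, penicillin- or vancomycin-resistant clinical isolates.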

Staphylococcus sp. = conditions: broth dilution, 18 hours at 35° C.
In short: as §1

Streptococcus sp. = system: Streptococcus sp.
In short: as §1

[1] = broth dilution, inoculum 5×10^5 CFU/mL, 18 hours at 35° C.

CC(c1ccccc1)C1NC(=O)CNC(=O)C(CO)NC(=O)C(C(O)C2CNC(=N)N2C2OC(CO)C(O)C(O)C2O)NC(=O)C(C(O)C2CNC(=N)N2)NC(=O)C(Cc2ccc(OC3OC(CO)C(OC4OC5COC(c6ccc(C(=O)c7ccccc7)cc6)OC5C(O)C4O)C(O)C3O)cc2)NC1=O (stereo not drawn) [Example 173, Cyclo[glycyl-β-methylphenylalanyl-O-[4-O-[4,6-O-[4-benzoylbenzylidene)hexopyranosyl]-hexopyranosyl]tyrosyl-3-(2-iminoimidazolidin-4-yl)seryl-3-(3-hexopyranosyl-2-iminoimidazolidin-4-yl)serylseryl]]
2 µg/mL: MIC Enterococcus faecalis (GC 2242) (Enterococcus sp.; [1]) | MIC Enterococcus faecalis (GC 2691) (Enterococcus sp.; [1]) | MIC Enterococcus faecalis (GC 3059) (Enterococcus sp.; [1]) | MIC Enterococcus faecalis (GC 4552) (Enterococcus sp.; [1]) | MIC Enterococcus faecalis (GC 4553) (Enterococcus sp.; [1]) | MIC Enterococcus faecalis (GC 4554) (Enterococcus sp.; [1]) | MIC Enterococcus faecium (GC 2243) (Enterococcus sp.; [1]) | MIC Enterococcus faecium (GC 4557) (Enterococcus sp.; [1]) | MIC Enterococcus faecalis (GC 2242) (Enterococcus sp.; strain GC 2242) | MIC Enterococcus faecium (GC 2243) (Enterococcus sp.; strain GC 2243) | MIC Enterococcus faecalis (GC 2691) (Enterococcus sp.; strain GC 2691) | MIC Enterococcus faecalis (GC 3059) (Enterococcus sp.; strain GC 3059) | MIC Enterococcus faecalis (GC 4552) (Enterococcus sp.; strain GC 4552) | MIC Enterococcus faecalis (GC 4553) (Enterococcus sp.; strain GC 4553) | MIC Enterococcus faecalis (GC 4554) (Enterococcus sp.; strain GC 4554) | MIC Enterococcus faecium (GC 4557) (Enterococcus sp.; strain GC 4557) | MIC Coagulase Negative Staphylococcus (GC 4547) (Staphylococcus sp.; 5×10^5 CFU/mL) | MIC Staphylococcus aureus (GC 1131) (Staphylococcus sp.; 5×10^5 CFU/mL) | MIC Staphylococcus aureus (GC 4544) (Staphylococcus sp.; 5×10^5 CFU/mL) | MIC Staphylococcus aureus (GC 4545) (Staphylococcus sp.; 5×10^5 CFU/mL) | MIC Staphylococcus aureus (GC 1131) (Staphylococcus sp.; strain GC 1131) | MIC Staphylococcus aureus (GC 4544) (Staphylococcus sp.; strain GC 4544) | MIC Staphylococcus aureus (GC 4545) (Staphylococcus sp.; strain GC 4545)
1 µg/mL: MIC Enterococcus avium (GC 4558) (Enterococcus sp.; [1]) | MIC Enterococcus faecalis (ATCC 29212) (Enterococcus sp.; [1]) | MIC Enterococcus faecalis (GC 6189) (Enterococcus sp.; [1]) | MIC Enterococcus faecium (GC 4556) (Enterococcus sp.; [1]) | MIC Enterococcus faecalis (ATCC 29212) (Enterococcus sp.; strain ATCC 29212) | MIC Enterococcus faecium (GC 4556) (Enterococcus sp.; strain GC 4556) | MIC Enterococcus avium (GC 4558) (Enterococcus sp.; strain GC 4558) | MIC Enterococcus faecalis (GC 6189) (Enterococcus sp.; strain GC 6189) | MIC Staphylococcus aureus (ATCC 29213) (Staphylococcus sp.; 5×10^5 CFU/mL) | MIC Staphylococcus aureus (GC 3053) (Staphylococcus sp.; 5×10^5 CFU/mL) | MIC Staphylococcus haemolyticus (GC 4546) (Staphylococcus sp.; 5×10^5 CFU/mL) | MIC Staphylococcus aureus (ATCC 29213) (Staphylococcus sp.; strain ATCC 29213) | MIC Staphylococcus aureus (GC 3053) (Staphylococcus sp.; strain GC 3053)
16 µg/mL: MIC Escherichia coli (GC 4559) (Escherichia coli)
0.5 µg/mL: MIC Escherichi coli (GC 4560) (Escherichia coli) | MIC Coagulase Negative Staphylococcus (GC 4548) (Staphylococcus sp.; 5×10^5 CFU/mL) | MIC Coagulase Negative Staphylococcus (GC 4551) (Staphylococcus sp.; 5×10^5 CFU/mL) | MIC Coagulase Negative Staphylococcus (GC 6257) (Staphylococcus sp.; 5×10^5 CFU/mL) | MIC Staphylococcus aureus (GC 3051) (Staphylococcus sp.; 5×10^5 CFU/mL) | MIC Staphylococcus aureus (GC 4541) (Staphylococcus sp.; 5×10^5 CFU/mL) | MIC Staphylococcus aureus (GC 4542) (Staphylococcus sp.; 5×10^5 CFU/mL) | MIC Staphylococcus aureus-SMITH (GC 4543) (Staphylococcus sp.; 5×10^5 CFU/mL) | MIC Staphylococcus aureus (GC 3051) (Staphylococcus sp.; strain GC 3051) | MIC Staphylococcus aureus (GC 4541) (Staphylococcus sp.; strain GC 4541) | MIC Staphylococcus aureus (GC 4542) (Staphylococcus sp.; strain GC 4542)
<0.12 µg/mL: MIC Streptococcus agalactiae (GC 4564) (Streptococcus sp.; [1]) | MIC Streptococcus pneumoniae (ATCC 6301) (Streptococcus sp.; [1]) | MIC Streptococcus pneumoniae (GC 1894) (Streptococcus sp.; [1]) | MIC Streptococcus pneumoniae (GC 4565) (Streptococcus sp.; [1]) | MIC Streptococcus pyogenes (GC 4563) (Streptococcus sp.; [1]) | MIC Streptococcus pneumoniae (ATCC 6301) (Streptococcus sp.; strain ATCC 6301) | MIC Streptococcus pneumoniae (GC 1894) (Streptococcus sp.; strain GC 1894) | MIC Streptococcus pyogenes (GC 4563) (Streptococcus sp.; strain GC 4563) | MIC Streptococcus agalactiae (GC 4564) (Streptococcus sp.; strain GC 4564) | MIC Streptococcus pneumoniae (GC 4565) (Streptococcus sp.; strain GC 4565)
0.25 µg/mL: MIC Coagulase Negative Staphylococcus (GC 4549) (Staphylococcus sp.; 5×10^5 CFU/mL)
32 µg/mL: MIC Escherichia coli (ATCC 25922) (Escherichia coli)

CC(c1ccccc1)C1NC(=O)CNC(=O)C(CO)NC(=O)C(C(O)C2CNC(=N)N2C2OC(CO)C(O)C(O)C2O)NC(=O)C(C(O)C2CNC(=N)N2)NC(=O)C(Cc2ccc(OC3OC(CO)C(OC4OC5COC(c6ccc(-c7ccc(Cl)cc7)cc6)OC5C(O)C4O)C(O)C3O)cc2)NC1=O (stereo not drawn) [Example 178]
<0.06 µg/mL: MIC Streptococcus agalactiae (GC 4564) (Streptococcus sp.; [1]) | MIC Streptococcus pneumoniae (ATCC 6301) (Streptococcus sp.; [1]) | MIC Streptococcus pneumoniae (GC 1894) (Streptococcus sp.; [1]) | MIC Streptococcus pneumoniae (GC 4565) (Streptococcus sp.; [1]) | MIC Streptococcus pneumoniae (ATCC 6301) (Streptococcus sp.; strain ATCC 6301) | MIC Streptococcus pneumoniae (GC 1894) (Streptococcus sp.; strain GC 1894) | MIC Streptococcus agalactiae (GC 4564) (Streptococcus sp.; strain GC 4564) | MIC Streptococcus pneumoniae (GC 4565) (Streptococcus sp.; strain GC 4565)
32 µg/mL: MIC Coagulase Negative Staphylococcus (GC 4547) (Staphylococcus sp.; 5×10^5 CFU/mL)
8 µg/mL: MIC Enterococcus faecium (GC 4557) (Enterococcus sp.; [1]) | MIC Enterococcus faecium (GC 4557) (Enterococcus sp.; strain GC 4557) | MIC Staphylococcus aureus (GC 3051) (Staphylococcus sp.; 5×10^5 CFU/mL) | MIC Staphylococcus aureus (GC 4541) (Staphylococcus sp.; 5×10^5 CFU/mL) | MIC Staphylococcus aureus (GC 4542) (Staphylococcus sp.; 5×10^5 CFU/mL) | MIC Staphylococcus aureus (GC 4544) (Staphylococcus sp.; 5×10^5 CFU/mL) | MIC Staphylococcus haemolyticus (GC 4546) (Staphylococcus sp.; 5×10^5 CFU/mL) | MIC Staphylococcus aureus (GC 3051) (Staphylococcus sp.; strain GC 3051) | MIC Staphylococcus aureus (GC 4541) (Staphylococcus sp.; strain GC 4541) | MIC Staphylococcus aureus (GC 4542) (Staphylococcus sp.; strain GC 4542) | MIC Staphylococcus aureus (GC 4544) (Staphylococcus sp.; strain GC 4544)
16 µg/mL: MIC Enterococcus faecalis (GC 3059) (Enterococcus sp.; [1]) | MIC Enterococcus faecalis (GC 3059) (Enterococcus sp.; strain GC 3059) | MIC Escherichi coli (GC 4560) (Escherichia coli) | MIC Staphylococcus aureus (ATCC 29213) (Staphylococcus sp.; 5×10^5 CFU/mL) | MIC Staphylococcus aureus (ATCC 29213) (Staphylococcus sp.; strain ATCC 29213)
1 µg/mL: MIC Enterococcus faecalis (GC 2691) (Enterococcus sp.; [1]) | MIC Enterococcus faecalis (GC 2691) (Enterococcus sp.; strain GC 2691)
>64 µg/mL: MIC Escherichia coli (ATCC 25922) (Escherichia coli) | MIC Escherichia coli (GC 4559) (Escherichia coli)
2 µg/mL: MIC Enterococcus faecalis (GC 2242) (Enterococcus sp.; [1]) | MIC Enterococcus faecalis (GC 4553) (Enterococcus sp.; [1]) | MIC Enterococcus faecalis (GC 4554) (Enterococcus sp.; [1]) | MIC Enterococcus faecalis (GC 2242) (Enterococcus sp.; strain GC 2242) | MIC Enterococcus faecalis (GC 4553) (Enterococcus sp.; strain GC 4553) | MIC Enterococcus faecalis (GC 4554) (Enterococcus sp.; strain GC 4554) | MIC Coagulase Negative Staphylococcus (GC 4549) (Staphylococcus sp.; 5×10^5 CFU/mL) | MIC Coagulase Negative Staphylococcus (GC 6257) (Staphylococcus sp.; 5×10^5 CFU/mL)
4 µg/mL: MIC Enterococcus avium (GC 4558) (Enterococcus sp.; [1]) | MIC Enterococcus faecalis (ATCC 29212) (Enterococcus sp.; [1]) | MIC Enterococcus faecalis (GC 4552) (Enterococcus sp.; [1]) | MIC Enterococcus faecium (GC 2243) (Enterococcus sp.; [1]) | MIC Enterococcus faecium (GC 4556) (Enterococcus sp.; [1]) | MIC Enterococcus faecalis (ATCC 29212) (Enterococcus sp.; strain ATCC 29212) | MIC Enterococcus faecium (GC 2243) (Enterococcus sp.; strain GC 2243) | MIC Enterococcus faecalis (GC 4552) (Enterococcus sp.; strain GC 4552) | MIC Enterococcus faecium (GC 4556) (Enterococcus sp.; strain GC 4556) | MIC Enterococcus avium (GC 4558) (Enterococcus sp.; strain GC 4558) | MIC Coagulase Negative Staphylococcus (GC 4551) (Staphylococcus sp.; 5×10^5 CFU/mL) | MIC Staphylococcus aureus (GC 1131) (Staphylococcus sp.; 5×10^5 CFU/mL) | MIC Staphylococcus aureus (GC 3053) (Staphylococcus sp.; 5×10^5 CFU/mL) | MIC Staphylococcus aureus (GC 4545) (Staphylococcus sp.; 5×10^5 CFU/mL) | MIC Staphylococcus aureus-SMITH (GC 4543) (Staphylococcus sp.; 5×10^5 CFU/mL) | MIC Staphylococcus aureus (GC 1131) (Staphylococcus sp.; strain GC 1131) | MIC Staphylococcus aureus (GC 3053) (Staphylococcus sp.; strain GC 3053) | MIC Staphylococcus aureus (GC 4545) (Staphylococcus sp.; strain GC 4545)
0.5 µg/mL: MIC Enterococcus faecalis (GC 6189) (Enterococcus sp.; [1]) | MIC Enterococcus faecalis (GC 6189) (Enterococcus sp.; strain GC 6189) | MIC Coagulase Negative Staphylococcus (GC 4548) (Staphylococcus sp.; 5×10^5 CFU/mL)
0.12 µg/mL: MIC Streptococcus pyogenes (GC 4563) (Streptococcus sp.; [1]) | MIC Streptococcus pyogenes (GC 4563) (Streptococcus sp.; strain GC 4563)

— US8247211B2, “Glycopeptide antibiotics” (American Cyanamid Company, priority 2001, dated 2012)
